Entries after “also recorded” stand apart in the source; their conditions may differ.
How the values were obtained:
hKOP receptor [1] = molecular target: T1, hKOP receptor (Homo sapiens, UniProt P41145); assay: biochemical; format: biochemical; settings: for Emax: read-out: [35S]GTPγS binding Emax
hKOP receptor [2] = molecular target: T1, hKOP receptor; assay: cell-based; format: cell-based; settings: for Emax: read-out: Internalization Emax (% receptor internalized)
hKOP receptor [3] = molecular target: T1, hKOP receptor
mice = settings: mouse, in vivo; cited from earlier work
mKOP receptor [4] = molecular target: T2, mKOP receptor (Mus musculus, UniProt P33534); assay: biochemical; format: biochemical; settings: for Emax: read-out: [35S]GTPγS binding Emax
T2 sequence (P33534 whole entry): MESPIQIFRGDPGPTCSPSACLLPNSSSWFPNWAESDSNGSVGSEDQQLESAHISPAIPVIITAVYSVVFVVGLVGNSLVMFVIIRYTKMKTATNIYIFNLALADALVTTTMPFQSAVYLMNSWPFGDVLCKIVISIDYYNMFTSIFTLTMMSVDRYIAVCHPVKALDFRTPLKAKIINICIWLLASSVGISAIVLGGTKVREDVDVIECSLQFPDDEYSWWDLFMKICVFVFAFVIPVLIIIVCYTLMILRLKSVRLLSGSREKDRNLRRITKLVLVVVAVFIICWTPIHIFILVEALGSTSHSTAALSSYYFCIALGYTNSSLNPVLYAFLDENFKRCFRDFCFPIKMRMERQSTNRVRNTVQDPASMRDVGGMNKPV

mKOP receptor [5] = molecular target: T2, mKOP receptor; assay: cell-based; format: cell-based
mKOP receptor [6] = molecular target: T2, mKOP receptor

T1 sequence (P41145 whole entry): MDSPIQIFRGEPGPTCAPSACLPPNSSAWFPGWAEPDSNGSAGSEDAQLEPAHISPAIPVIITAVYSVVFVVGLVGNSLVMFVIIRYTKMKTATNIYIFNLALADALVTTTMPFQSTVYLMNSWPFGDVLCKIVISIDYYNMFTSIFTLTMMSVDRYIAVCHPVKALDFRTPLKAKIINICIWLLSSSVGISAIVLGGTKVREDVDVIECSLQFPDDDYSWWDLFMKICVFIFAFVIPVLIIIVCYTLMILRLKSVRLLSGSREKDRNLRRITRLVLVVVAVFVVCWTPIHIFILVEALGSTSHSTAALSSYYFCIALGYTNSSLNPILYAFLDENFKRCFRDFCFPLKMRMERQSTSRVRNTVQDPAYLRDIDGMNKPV

For `C=CCN1CC[C@]23c4c5ccc(O)c4O[C@H]2[C@@H](O)C=C[C@H]3[C@H]1C5` [Nalorphine, nalorphine], the EC50 (hKOP receptor [1]; [35S]GTPγS binding pEC50) was 27.5 nM, the Emax (hKOP receptor [1]) was 51.4 ± 2.3% and the “Internalization Emax (% receptor internalized)” value (hKOP receptor [2]) was 23.7 ± 4.0%. For the same compound, the EC50 (hKOP receptor [2]; Internalization pEC50) was 12 nM, the Emax (hKOP receptor [2]) was 23.9% and the “Bias factor (larger RAi divided by smaller)” value (hKOP receptor [3]) was “I ^c, 2.5”. The “Bias factor, direction of bias” value (hKOP receptor [3]) was “I ^c, 2.5” and the “Functional selectivity (bias) in words” value (hKOP receptor [3]) was “did not reach statistical significance”.

For `CC[C@]12CCN(CC3CC3)[C@H](C(=O)c3ccc(O)cc31)[C@@H]2C` [EKC, ethylketocyclazocine], the “log RAi−G” value (hKOP receptor [1]) was 0.015 ± 0.11, the Emax (hKOP receptor [1]) was 80.6 ± 1.5% and the Emax (hKOP receptor [2]) was 44.8 ± 2.2%. For the same compound, the “Bias factor, direction of bias” value (hKOP receptor [3]) was “I, 3.1”.

In the case of RB-64, the “Sedation and anhedonia-like actions” value (mice) is listed as “did not induce sedation or anhedonia-like effects”.

For `COC(=O)[C@@H]1C[C@H](OC(C)=O)C(=O)[C@H]2[C@@]1(C)CC[C@H]1C(=O)O[C@H](c3ccoc3)C[C@]21C` [Salvinorin A, salvinorin A], the “Sedation and anhedonia-like actions” value (mice) is listed as “produced sedation and anhedonia-like actions”.

For `Oc1ccc2c(c1)[C@@]13CCCC[C@@]1(O)[C@@H](C2)N(CC1CCC1)CC3` [Butorphanol, butorphanol], the EC50 (hKOP receptor [1]; [35S]GTPγS binding EC50, mean) was 2.4 nM, the EC50 (hKOP receptor [1]; [35S]GTPγS binding pEC50) was 2.34 nM and the Emax (hKOP receptor [1]) was 25.6 ± 1.8%. For the same compound, the “log RAi−I” value (hKOP receptor [2]) was 0.088 ± 0.18, the EC50 (hKOP receptor [2]; Internalization pEC50) was 3.31 nM and the Emax (hKOP receptor [2]) was 33.4 ± 3.2%. For the same compound, the “Bias factor, direction of bias” value (hKOP receptor [3]) was “I ^c, 4.7” and the “Functional selectivity (bias) in words” value (hKOP receptor [3]) was “did not reach statistical significance”.

Work on `CN1c2ccccc2C(c2ccccc2F)=NCC1CNC(=O)c1ccsc1` (centres unmarked) [Tifluadom, tifluadom] yielded an EC50 (hKOP receptor [1]; [35S]GTPγS binding EC50, mean) of 333 nM, an Emax (hKOP receptor [1]) of 97.2 ± 11% and an EC50 (hKOP receptor [2]; Internalization pEC50) of 11.2 nM. The Emax (hKOP receptor [2]) was 29.6 ± 2.1% and the “Bias factor, direction of bias” value (hKOP receptor [3]) was “I, 11.8”.

In the case of `COC(=O)/C=C/C(=O)N[C@@H]1CC[C@@]2(O)[C@H]3Cc4ccc(O)c5c4[C@@]2(CCN3CC2CC2)[C@H]1O5` [β-FNA, β-funaltrexamine], the “[35S]GTPγS binding Emax” value (hKOP receptor [1]) is reported as 63.7 ± 2.4%, the “[35S]GTPγS binding pEC50” value (hKOP receptor [1]) is reported as 8.08 ± 0.09 (8.4) and the EC50 (hKOP receptor [1]; read-out: [35S]GTPγS binding EC50, mean) is reported as 8.4 nM. The “Internalization Emax (% receptor internalized)” value (hKOP receptor [2]) was 32.8 ± 5.7%, the “Internalization pEC50” value (hKOP receptor [2]) was 8.02 ± 0.47 (9.6) and the EC50 (hKOP receptor [2]; read-out: Internalization EC50, mean) was 9.6 nM. The “Bias factor (larger RAi divided by smaller)” value (hKOP receptor [3]) was “I ^c, 1.2”, the “Bias factor, direction of bias” value (hKOP receptor [3]) was “I ^c, 1.2” and the “Functional selectivity (bias) in words” value (hKOP receptor [3]) was “did not reach statistical significance”.

In the case of `CN1CC[C@]23CCCC[C@H]2[C@H]1Cc1ccc(O)cc13` [Levorphanol, levorphanol], the “Agonist efficacy in [35S]GTPγS binding, in words” value (from here on “Agonist efficacy”) (hKOP receptor [1]) is reported as “weak partial agonist; also recorded: partial agonists”, the EC50 (hKOP receptor [1]; [35S]GTPγS binding EC50, mean) is reported as 72 nM and the Emax (hKOP receptor [1]) is reported as 38.1 ± 4.8%. For the same compound, the “Internalization Emax (% receptor internalized)” value (hKOP receptor [2]) was “did not cause significant internalization; also recorded: lacked an effect on receptor internalization; also recorded: did not cause receptor internalization; also recorded: No internalization”, the “Internalization pEC50” value (hKOP receptor [2]) was “No internalization” and the “Agonist efficacy” value (mKOP receptor [4]) was “partial agonists”. For the same compound, the EC50 (mKOP receptor [4]; [35S]GTPγS binding pEC50) was 30.2 nM, the Emax (mKOP receptor [4]) was 62.3 ± 2.9% and the EC50 (mKOP receptor [5]) was 0.83 nM. The “log RAi−I” value (mKOP receptor [5]) was 0.29 ± 0.35, the Emax (mKOP receptor [5]; read-out: Internalization Emax (% receptor internalized)) was 29.7 ± 1.7% and the “Bias factor, direction of bias” value (mKOP receptor [6]) was “I, 244”. The “Bias factor, direction, mKOP receptor (Table 5)” value (mKOP receptor [6]) was “I, 244”, the “Bias factor, mKOP receptor (Table 5)” value (mKOP receptor [6]) was “I, 244” and the “Functional selectivity (bias) in words” value (mKOP receptor [6]) was “internalization-biased”. The “log RAi−G/RAi−I (log bias)” value (mKOP receptor [6]) was −2.39 ± 0.37.

With `CCC12CCN(CC3(O)CC3)C(Cc3ccc(O)cc31)C2(C)C` (centres unmarked) [Bremazocine, bremazocine] the “log RAi−G” value (hKOP receptor [1]) was 0.50 ± 0.11, the EC50 (hKOP receptor [1]; [35S]GTPγS binding EC50, mean) was 0.95 nM and the Emax (hKOP receptor [1]) was 68.2 ± 2%. For the same compound, the “log RAi−I” value (hKOP receptor [2]) was 0.58 ± 0.16, the EC50 (hKOP receptor [2]; Internalization EC50, mean) was 1.4 nM and the EC50 (hKOP receptor [2]; Internalization pEC50) was 1.35 nM. The Emax (hKOP receptor [2]) was 39.2 ± 1.8%, the “Bias factor (larger RAi divided by smaller)” value (hKOP receptor [3]) was “I ^c, 1.2” and the “Bias factor, direction of bias” value (hKOP receptor [3]) was “I ^c, 1.2”. For the same compound, the “Functional selectivity (bias) in words” value (hKOP receptor [3]) was “did not reach statistical significance”.

In the case of `CC(C)=CCN1CCC2(C)c3cc(O)ccc3CC1C2C` (centres unmarked) [Pentazocine, pentazocine], the “Agonist efficacy” value (hKOP receptor [1]) is reported as “partial agonists”, the EC50 (hKOP receptor [1]; [35S]GTPγS binding EC50, mean) is reported as 28 nM and the EC50 (hKOP receptor [1]; [35S]GTPγS binding pEC50) is reported as 28.2 nM. For the same compound, the Emax (hKOP receptor [1]) was 20.5 ± 6.9%, the “log RAi−I” value (hKOP receptor [2]) was −0.87 ± 0.22 and the EC50 (hKOP receptor [2]; Internalization EC50, mean) was 92 nM. For the same compound, the EC50 (hKOP receptor [2]; Internalization pEC50) was 91.2 nM, the Emax (hKOP receptor [2]) was 37 ± 13.3% and the “Agonist efficacy” value (mKOP receptor [4]) was “partial agonists”. For the same compound, the Emax (mKOP receptor [4]) was 46.6 ± 2.7%, the “Internalization Emax (% receptor internalized)” value (mKOP receptor [5]) was “did not cause significant internalization; also recorded: lacked significant effects on receptor internalization; also recorded: did not cause receptor internalization; also recorded: not mKOP receptor; also recorded: No internalization” and the “Bias factor (larger RAi divided by smaller)” value (hKOP receptor [3]) was “I ^c, 5.8”. For the same compound, the “Bias factor, direction of bias” value (hKOP receptor [3]) was “I ^c, 5.8”, the “Bias factor, direction, hKOP receptor (Table 5)” value (hKOP receptor [3]) was “I ^c, 5.8” and the “Bias factor, hKOP receptor (Table 5)” value (hKOP receptor [3]) was “I ^c, 5.8”.
